Experiments:
[1] = tested on: lentiviral vector harboring WT IN; experiment: microbe, parasite or virus in culture; format: cell-based, HIV-1; conditions: for antiviral potency against WT vector with increasing FBS: 5%, 10% and 15% FBS, relative to values at 5% FBS, data not shown
[2] = cellular cytotoxicity assay; format: cell-based; conditions: human, HOS human osteosarcoma cells
[3] = tested on: HIV-1 construct carrying IN mutation R263 K; experiment: single-round HIV-1 infectivity assay, R263 K IN mutant; format: cell-based; conditions: Human immunodeficiency virus 1, read-out: EC50 R263 K IN mutant
[4] = tested on: HIV-1 construct carrying IN mutation G118R; experiment: single-round HIV-1 infectivity assay, G118R IN mutant; format: cell-based; conditions: Human immunodeficiency virus 1, read-out: EC50 G118R IN mutant

Structure (SMILES)	antiviral potency against WT vector with increasing FBS [1]	CC50 [2] [nM]	further results
CC(=O)OCCNc1c(C(=O)NCc2ccc(F)cc2F)c(=O)n(O)c2ncccc12 [5p, 2-((3-((2,4-Difluorobenzyl)carbamoyl)-1-hydroxy-2-oxo-1,2-dihydro-1,8-naphthyridin-4-yl)amino)ethyl Acetate]	essentially unchanged	–	–
COC(=O)[C@@H](CO)Nc1c(C(=O)NCc2ccc(F)cc2F)c(=O)n(O)c2ncccc12 [(R)-5t, Methyl (R)-2-((3-((2,4-Difluorobenzyl)carbamoyl)-1-hydroxy-2-oxo-1,2-dihydro-1,8-naphthyridin-4-yl)amino)-3-hydroxypropanoate]	–	> 250000	–
Nc1c(C(=O)NCc2ccc(F)cc2F)c(=O)n(O)c2ncccc12 [5v, 4-Amino-N-(2,4-difluorobenzyl)-1-hydroxy-2-oxo-1,2-dihydro-1,8-naphthyridine-3-carboxamide]	essentially unchanged	–	–
COC(=O)CNc1c(C(=O)NCc2ccc(F)cc2F)c(=O)n(O)c2ncccc12 [5q, Methyl 2-((3-((2,4-Difluorobenzyl)carbamoyl)-1-hydroxy-2-oxo-1,2-dihydro-1,8-naphthyridin-4-yl)amino)acetate]	essentially unchanged	–	–
COC(=O)[C@H](C)Nc1c(C(=O)NCc2ccc(F)cc2F)c(=O)n(O)c2ncccc12 [(S)-5r, Methyl (S)-2-((3-((2,4-Difluorobenzyl)carbamoyl)-1-hydroxy-2-oxo-1,2-dihydro-1,8-naphthyridin-4-yl)amino)propanoate]	–	> 250000	–
COC(=O)[C@H](Nc1c(C(=O)NCc2ccc(F)cc2F)c(=O)n(O)c2ncccc12)c1ccccc1 [(R)-5s, Methyl (R)-2-((3-((2,4-Difluorobenzyl)carbamoyl)-1-hydroxy-2-oxo-1,2-dihydro-1,8-naphthyridin-4-yl)amino)-2-phenylacetate]	–	> 250000	–
Cc1nnc(C(=O)NC(C)(C)c2nc(C(=O)NCc3ccc(F)cc3)c(O)c(=O)n2C)o1 [compound 1, raltegravir]	–	–	EC50 ([1]; Human immunodeficiency virus 1, read-out: EC50 (WT)): 4 ± 2 nM; EC50 [3]: 9 ± 4 nM; EC50 [4]: 36 ± 5 nM

Source: article PMC4216207 (Journal of Medicinal Chemistry, 2014)
